Experimental data published in patent US20070015810A1, “5(R)-Substituted Pyrazoline Compounds, their Preparation and Use as Medicaments” (LABORATORIOS DEL DR. ESTEVE, S.A., priority 2005, published 2007).
Structures can show the parent of a compound that is named as a salt.

Key:
[1] = molecular target: T1, recombinant human cannabinoid 1 receptor (CB1) (Homo sapiens, UniProt P21554); test: [35S]GTPγS binding assay, antagonism to CB1-receptor in CHO cell membranes; type: biochemical; settings: compound 1 μM versus agonist WIN 55,212-2; 100% = difference between maximal WIN 55,212-2 effect alone and with Rimonabant (1 μM)
T1 construct: expressed in transfected cells; membrane preparation
Protocol: VI. In Vitro Determination of Antagonism to CB1-Receptor
Chinese hamster ovary (CHO) cells stably expressing recombinant human cannabinoid 1 receptor (CB1) were cultured in nutrient mixture Ham's F 12 supplemented with 10% heat-inactivated fetal bovine serum, 2 mM L-glutamine, 50 U/ml penicillin, 50 U/ml streptomycin and 0.5 mg/ml geneticin. In order to obtain cells, culture flasks were washed twice with phosphate buffered saline and scraped. Then, cells were collected by centrifugation (200×g, 10 min) and stored dry at −80° C. Cells were homogenized in ice-cold 20 mM HEPES, 10 mM EDTA (pH 7.5) and centrifuged at 40,000×g for 15 min at 4° C. The membrane pellet was resuspended in 20 mM HEPES, 0.1 mM EDTA (pH 7.5) and centrifuged for 15 min at 4° C. The final membrane pellet was resuspended in 20 mM HEPES, 0.1 mM EDTA (pH 7.5), and divided in aliquots and stored at −80° C. until use.
The reaction was performed in 96-well plates. […] Radioactivity was determined using a Wallac Microbeta Trilux. […]
The antagonism of the pyrazoline compounds of general formula I to the CB1-receptor was determined according to the method described in Pharmacological methods, part VI (table 2).

[2] = molecular target: CB1-receptor (UniProt P20272); test: In-vitro determination of affinity (binding) to the CB1-receptor, radioligand [3H]-CP55940; settings: Pharmacological methods part I
Text: 1. In-vitro determination of affinity to CB1CB2-Receptors
The in-vitro determination of the affinity of the inventive substituted pyrazoline compounds to CB1/CB2-Rezeptors is carded out as described in the publication of Ruth A. Ross, Heather C. Brockie et al., “Agonist-inverse agonist characterization at CB1 and CB2 cannabinoid receptors of L-759633, L759656 and AM630”, British Journal of Pharmacology, 126, 665-672, (1999), whereby the transfected human CB1 and CB2 receptors of Receptor Biology, Inc. are used. The radioligand used for both receptors is [^3H]-CP55940. The respective parts of the description is hereby incorporated by reference and forms part of the present disclosure. […]
Binding affinity to CB1 receptor was evaluated according to a modification of the method described by Govaerts et al., Eur J Pharmac Sci 23, 233-243 (2004). […]
Briefly, cerebellum from male wistar rats (250-300 g) were carefully dissected on ice and homogenates were prepared with Potter-Helveheim in a cold 50 mM Tris-HCl solution containing 5 mM MgCl2, 1 mM EDTA and 0.25 M sucrose, pH 7.4. […] Total protein concentration was determined using the Bio-Rad Lowry method based kit. […] Compounds were present at various concentrations and the non specific binding was determined in the presence of 10 μM HU-210. […]
Binding data were analyzed by non-linear regression with the software GraphPad Prism Version 3.03. […]

[3] = Effect of continued administration on body weight in rats; type: in vivo; settings: 10 mg/kg i.p. once daily
Protocol: V. Determination of the Effect of Continued Administration of the Inventive Compounds on Body Weight in Rats
The weight of the animals was measured for 36 days, and the data grouped into 3 periods for analysis. Period 1, days 1-8 (period for adaptation of the animals to the environmental conditions: one week without treatment plus first day of treatment); Period 2, days 9-22 (treatment period: two weeks); Period 3, days 23-36 (escape treatment period: two weeks). The administration of the drugs started on day 8, immediately after the animal was weighted, and finished on day 21. The treatment period ranges between one day after first administration and one day after last administration. The drugs were administered i.p. once daily. For comparative purposes, absolute weights were transformed into relative percentages (each weight was divided by that of day 8 and multiplied by 100). […] All results are expressed as mean±S.E.M.
The dependence of body-weight (expressed as a percentage relative to day 8) on time (number of days after inclusion in the study) and treatment was assessed by a two-way (time, treatment) analysis of variance (ANOVA) with repeated measures on the time factor. […] The differences between pairs of curves (treatments) were analyzed using appropriate contrasts within the ANOVA test. […]

[4] = Chronic administration in animals made obese by a simplified cafeteria diet; type: in vivo, rats

T1 sequence (P21554 whole entry): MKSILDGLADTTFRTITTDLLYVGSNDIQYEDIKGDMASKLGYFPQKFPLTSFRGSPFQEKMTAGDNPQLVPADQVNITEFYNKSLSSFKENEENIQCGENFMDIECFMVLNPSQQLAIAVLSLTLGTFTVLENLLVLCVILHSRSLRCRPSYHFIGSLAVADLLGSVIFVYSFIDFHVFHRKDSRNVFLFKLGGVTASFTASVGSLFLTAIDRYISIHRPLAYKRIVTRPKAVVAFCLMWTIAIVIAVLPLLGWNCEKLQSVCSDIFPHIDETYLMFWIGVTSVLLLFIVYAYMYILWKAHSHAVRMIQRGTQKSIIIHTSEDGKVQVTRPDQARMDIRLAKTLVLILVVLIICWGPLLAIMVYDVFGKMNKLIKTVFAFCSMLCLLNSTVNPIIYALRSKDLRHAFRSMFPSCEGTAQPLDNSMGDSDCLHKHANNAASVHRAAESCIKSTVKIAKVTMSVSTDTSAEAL

Compound	Antagonism [%] [1] [%]	IC50 [2] [nM]	effect on body weight ([3]; days 8-21, FIG. 1)	recovery of weight after treatment ([3]; escape period days 23-36, FIG. 1)	body weight on chronic administration ([4]; animals made obese by cafeteria diet (high-fat diet, chocolate, ground peanuts))	body weight after 28 days of drug treatment versus vehicle-treated controls ([4]; obese rats, 28 days of treatment)
O=C(NN1CCCCC1)C1=NN(c2ccc(Cl)cc2Cl)[C@@H](c2ccc(Cl)cc2)C1 [A, (R)-N-piperidinyl-5-(4chlorophenyl)-1-(2,4-dichlorophenyl)-4,5-dihydro-1H-pyrazole-3-carboxamide]	106	16.1	stronger action than the racemate	slower recovery of weight	significantly decreased body weight	lower than those of the vehicle-treated controls
O=C(NN1CCCCC1)C1=NN(c2ccc(Cl)cc2Cl)[C@@H](c2ccc(Cl)cc2)C1 [A-Hydrochloride]	113	20				
